Data set [1] can be described thus: Compound toxicity, WST-1, non-infected MDBK cells. Type of data set: cell-based. The conditions noted are these: bovine, 4 days incubation, WST-1 readout. As to the method: To determine the anti-viral effect of the compounds, MDBK cells were infected with the cytopathic strain of BVDV(NADL) using a 0.006 to 0.01 MOI. 3000 cells were then seeded in each well of a 96-well plate containing the compound. The final volume was 200 μl of media per wells. […] Cell culture was then incubated for another 2 hrs at 37° C., after which 20 μl of 10% SDS was added to each well in order to inactivate the virus and the OD at 450 nm was determined using a microplate reader (Dynatech MR5000).
In parallel, the same experiment was performed using non-infected cells to determine the compound toxicity. […]
For orientation: Tetrazolium assays rely on reduction of a dye to a coloured formazan, in cell work by metabolically active cells.

In another data set the test system is BVDV(NADL). Description: WST-1 based BVDV anti-viral assay (CPE reduction in infected MDBK cells). Type of data set: cell-based. The settings on record: Bovine viral diarrhea virus isolates and strains, 96 h, MDBK cells infected with cytopathic BVDV (NADL), MOI 0.006 to 0.01, 4 days incubation, WST-1 readout, read-out: BVDV antiviral effect IC50. The protocol:
Currently, the WST-1 based BVDV assay, is being used as surrogate to evaluate potential anti-HCV agents since BVDV (bovine viral diarrhea virus) shares functional homology with the HCV.
To determine the anti-viral effect of the compounds, MDBK cells were infected with the cytopathic strain of BVDV(NADL) using a 0.006 to 0.01 MOI. 3000 cells were then seeded in each well of a 96-well plate containing the compound. The final volume was 200 μl of media per wells. […] Cell culture was then incubated for another 2 hrs at 37° C., after which 20 μl of 10% SDS was added to each well in order to inactivate the virus and the OD at 450 nm was determined using a microplate reader (Dynatech MR5000). […]

Structures can show the parent of a compound that is named as a salt.

As to `O=C(NCc1ccccc1)c1ccc2cccnc2n1` [Compound #2, [1,8] naphthyridine-2-carboxylic acid benzylamide], the CC50 – broadly, the concentration that lowers cell viability or growth by half – at 4 days in data set [1] was more than 76 µM. In addition, in the data set with BVDV(NADL), the IC50 (in general, the point on the concentration scale where inhibition reaches its midpoint) is less than 76 µM.

For `COc1ccc(CNC(=O)c2ccc3cccnc3n2)cc1` [Compound #3, [1,8] naphthyridine-2-carboxylic acid 4-methoxy-benzylamide], the CC50 at 4 days in data set [1] was more than 68.2 µM. In the data set with BVDV(NADL), the IC50 is approximately 1.7 µM.

As for `COc1cccc(CNC(=O)c2ccc3cccnc3n2)c1` [Compound #4, [1,8] naphthyridine-2-carboxylic acid 3-methoxy-benzylamide], the CC50 at 4 days in data set [1] is more than 68.2 µM. Besides, the IC50 in the data set on BVDV(NADL) was approximately 6.8 µM.

`COc1cc(OC)c(CNC(=O)c2ccc3cccnc3n2)c(OC)c1` [Compound #5, [1,8] naphthyridine-2-carboxylic acid 2,4,6-trimethoxy-benzylamide] returned a CC50 at 4 days in data set [1] of more than 56.6 µM. Besides, the concentration for half-maximal inhibition (IC50) in the data set with BVDV(NADL) was approximately 1.1 µM.

Take `CC(C)Oc1ccccc1CNC(=O)c1ccc2cccnc2n1` [Compound #8, [1,8] naphthyridine-2-carboxylic acid 2-isopropoxy-benzylamide]: the CC50 at 4 days in data set [1] is more than 62.2 µM. Besides, in the data set with BVDV(NADL), the IC50 is less than 62.2 µM.

Compound `CC[C@@H](C)Oc1ccccc1CNC(=O)c1ccc2cccnc2n1` [Compound #10, (−)-[1,8] naphthyridine-2-carboxylic acid 2-sec-butoxy-benzylamide] gave a 50% cytotoxic concentration (CC50) at 4 days in data set [1] of more than 6 µM. The IC50 in the data set with BVDV(NADL) was more than 6 µM.

`O=C(NCc1cccnc1)c1ccc2cccnc2n1` [Compound #12, [1,8] naphthyridine-2-carboxylic acid (pyridin-3-ylmethyl)-amide] gave a half-maximal cytotoxic concentration (CC50) at 4 days in data set [1] of more than 75.7 µM. Further, the IC50 with BVDV(NADL) is approximately 18.9 µM.

Turning to `O=C(NCc1ccccn1)c1ccc2cccnc2n1` [Compound #13, [1,8] naphthyridine-2-carboxylic acid (pyridin-2-ylmethyl)-amide], the half-maximal cytotoxic concentration (CC50) at 4 days in data set [1] is more than 75.7 µM.

In data set [1], `O=C(Nc1ccccn1)c1ccc2cccnc2n1` [Compound #15, [1,8] naphthyridine-2-carboxylic acid pyridin-2-ylamide] came in with a CC50 at 4 days of more than 79.9 µM.

As for `O=C(NCc1ccccc1F)c1ccc2cccnc2n1` [Compound #16, [1,8] naphthyridine-2-carboxylic acid 2-fluoro-benzylamide], the CC50 at 4 days in data set [1] is more than 71.1 µM. For the same compound, in the data set with BVDV(NADL), the half-maximal inhibitory concentration (IC50) is approximately 1.1 µM.

For `O=C(NCc1ccccc1Cl)c1ccc2cccnc2n1` [Compound #17, [1,8] naphthyridine-2-carboxylic acid 2-chloro-benzylamide], the CC50 at 4 days in data set [1] was more than 67.2 µM. Moreover, the IC50 in the data set on BVDV(NADL) was approximately 3.6 µM.

In the case of `O=C(Nc1cccc([N+](=O)[O-])c1)c1ccc2cccnc2n1` [Compound #19, [1,8] naphthyridine-2-carboxylic acid (3-nitrophenyl)-amide], in data set [1], the CC50 at 4 days was more than 68 µM. The IC50 in the data set with BVDV(NADL) is approximately 1.7 µM.

For `O=C(Nc1nccs1)c1ccc2cccnc2n1` [Compound #22, [1,8] naphthyridine-2-carboxylic acid thiazol-2-ylamide], the 50% cytotoxic concentration (CC50) at 4 days in data set [1] is more than 78 µM.

As for `O=C(Nc1nc2ccccc2s1)c1ccc2cccnc2n1` [Compound #23, [1,8] naphthyridine-2-carboxylic acid benzothiazol-2-ylamide], the CC50 at 4 days in data set [1] is more than 6.5 µM.

The compound `O=C(Nc1ccccc1F)c1ccc2cccnc2n1` [Compound #24, [1,8] naphthyridine-2-carboxylic acid (2-fluoro-phenyl)-amide] had a cytotoxic concentration (CC50) at 4 days in data set [1] of more than 74.8 µM. Further, the half-inhibitory concentration (IC50) with BVDV(NADL) was approximately 7.5 µM.

With `COc1ccccc1CNC(=N)c1ccc2cccnc2n1` [Compound #27, N-(2-methoxy-benzyl)-[1,8]naphthyridine-2-carboxamidine trifluoroacetate], the 50% cytotoxic concentration (CC50) at 4 days in data set [1] is more than 63.2 µM. The IC50 with BVDV(NADL) was approximately 0.33 µM.

In data set [1], `O=C(Nc1ccccc1)c1ccc2cccnc2n1` [Compound #28, [1,8] naphthyridine-2-carboxylic acid phenyl-amide] came in with a CC50 at 4 days of more than 80.2 µM.

In data set [1], `O=C(Nc1cccnc1)c1ccc2cccnc2n1` [Compound #29, [1,8] naphthyridine-2-carboxylic acid pyridin-3-yl-amide] showed a CC50 at 4 days of more than 79.9 µM. Besides, the IC50 with BVDV(NADL) was approximately 3.2 µM.

`O=C(Nc1cccc(C(F)(F)F)c1)c1ccc2cccnc2n1` [Compound #30, [1,8] naphthyridine-2-carboxylic acid (phenyl-3-trifluoromethyl)-amide] came in with a CC50 at 4 days in data set [1] of 6.3 µM. In addition, in the data set on BVDV(NADL), the IC50 was approximately 0.6 µM.

`O=C(NCc1cccc(C(F)(F)F)c1)c1ccc2cccnc2n1` [Compound #31, [1,8] naphthyridine-2-carboxylic acid (phenylmethyl-3-trifluoromethyl)-amide]: the half-maximal cytotoxic concentration (CC50) at 4 days in data set [1] was more than 60.4 µM. In addition, in the data set with BVDV(NADL), the IC50 is approximately 3 µM.

Values taken from US6605614B2, “[1,8] naphthyridine derivatives having antiviral activity” (BioChem Pharma Inc., priority 1999, dated 2003).
